Source: PubChem BioAssay (NCI)
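Values below derive from 48-hour exposures of cells grown in 96-well plates, with endpoints linearly interpolated between the two concentrations bracketing the appropriate inhibition level. TGI denotes the concentration required for complete inhibition of growth.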

These molecules were tested on PC-3 prostate (assay: inhibition of tumour cell growth, NCI panel, 48 h).

SMILES	TGI [µM]
Nc1ncnc2c1ccn2C/C=C/CO	> 100
CC(C)(C)c1ccc2c(c1)C#Cc1cc3c(cc1OCCCO2)C#Cc1cc(C(C)(C)C)ccc1OCCCO3	> 100

Each molecule was assayed on OVCAR-5 ovarian (assay: inhibition of tumour cell growth, NCI panel, 48 h).

SMILES	TGI [µM]
COc1ccc(N2C(=O)C3c4[nH]c5cc(C)ccc5c4C4CCC(C(C)(C)C)CC4C3C2=O)cc1 (configuration not stated)	> 10
CC1(C)C=CC(=O)C(O)C(C)(C)C1=O (configuration not stated)	> 100
CNc1nc(N)nc(Nc2ccc(I)cc2)c1N=O	> 100
O=C1/C(=C/c2ccc(Cl)cc2)CCCc2ccccc21	31.9
Cc1cc(C[C@H]2O[C@@H]3OC(C)(C)O[C@@H]3[C@H]3OC(C)(C)O[C@H]32)c2ccccc2n1	> 100
Nc1ncnc2c1ccn2C/C=C/CO	> 100
CC(C)(C)c1ccc2c(c1)C#Cc1cc3c(cc1OCCCO2)C#Cc1cc(C(C)(C)C)ccc1OCCCO3	> 100

Each molecule was assayed on SF-295 CNS (assay: inhibition of tumour cell growth, NCI panel, 48 h).

SMILES	TGI [µM]
COc1ccc(N2C(=O)C3c4[nH]c5cc(C)ccc5c4C4CCC(C(C)(C)C)CC4C3C2=O)cc1 (configuration not stated)	> 10
CC1(C)C=CC(=O)C(O)C(C)(C)C1=O (configuration not stated)	> 100
CNc1nc(N)nc(Nc2ccc(I)cc2)c1N=O	> 100
O=C1/C(=C/c2ccc(Cl)cc2)CCCc2ccccc21	31.5
Cc1cc(C[C@H]2O[C@@H]3OC(C)(C)O[C@@H]3[C@H]3OC(C)(C)O[C@H]32)c2ccccc2n1	> 100
Nc1ncnc2c1ccn2C/C=C/CO	> 100
CC(C)(C)c1ccc2c(c1)C#Cc1cc3c(cc1OCCCO2)C#Cc1cc(C(C)(C)C)ccc1OCCCO3	> 100

What follows are molecules tested on SK-MEL-5 melanoma (assay: inhibition of tumour cell growth, NCI panel, 48 h).

SMILES	TGI [µM]
CNc1nncc2[nH]cnc12	> 100
COc1ccc(N2C(=O)C3c4[nH]c5cc(C)ccc5c4C4CCC(C(C)(C)C)CC4C3C2=O)cc1 (configuration not stated)	> 10
CC1(C)C=CC(=O)C(O)C(C)(C)C1=O (configuration not stated)	> 100
CNc1nc(N)nc(Nc2ccc(I)cc2)c1N=O	> 100
Cc1cc(C[C@H]2O[C@@H]3OC(C)(C)O[C@@H]3[C@H]3OC(C)(C)O[C@H]32)c2ccccc2n1	> 100
Nc1ncnc2c1ccn2C/C=C/CO	> 100
CC(C)(C)c1ccc2c(c1)C#Cc1cc3c(cc1OCCCO2)C#Cc1cc(C(C)(C)C)ccc1OCCCO3	> 100

Each molecule was assayed on MDA-N (assay: inhibition of tumour cell growth, NCI panel, 48 h).

SMILES	TGI [µM]
CNc1nncc2[nH]cnc12	> 100
COc1ccc(N2C(=O)C3c4[nH]c5cc(C)ccc5c4C4CCC(C(C)(C)C)CC4C3C2=O)cc1 (configuration not stated)	> 10
CC1(C)C=CC(=O)C(O)C(C)(C)C1=O (configuration not stated)	> 100
CNc1nc(N)nc(Nc2ccc(I)cc2)c1N=O	> 100
O=C1/C(=C/c2ccc(Cl)cc2)CCCc2ccccc21	33.3
Cc1cc(C[C@H]2O[C@@H]3OC(C)(C)O[C@@H]3[C@H]3OC(C)(C)O[C@H]32)c2ccccc2n1	> 100
Nc1ncnc2c1ccn2C/C=C/CO	> 100
CC(C)(C)c1ccc2c(c1)C#Cc1cc3c(cc1OCCCO2)C#Cc1cc(C(C)(C)C)ccc1OCCCO3	> 100

The molecules below were run on NCI-H522 lung (assay: inhibition of tumour cell growth, NCI panel, 48 h).

SMILES	TGI [µM]
COc1ccc(N2C(=O)C3c4[nH]c5cc(C)ccc5c4C4CCC(C(C)(C)C)CC4C3C2=O)cc1 (configuration not stated)	> 10
CC1(C)C=CC(=O)C(O)C(C)(C)C1=O (configuration not stated)	89.4
CNc1nc(N)nc(Nc2ccc(I)cc2)c1N=O	> 100
O=C1/C(=C/c2ccc(Cl)cc2)CCCc2ccccc21	26.5
Cc1cc(C[C@H]2O[C@@H]3OC(C)(C)O[C@@H]3[C@H]3OC(C)(C)O[C@H]32)c2ccccc2n1	94.4
Nc1ncnc2c1ccn2C/C=C/CO	> 100
CC(C)(C)c1ccc2c(c1)C#Cc1cc3c(cc1OCCCO2)C#Cc1cc(C(C)(C)C)ccc1OCCCO3	> 100

Each molecule was assayed on SK-MEL-28 melanoma (assay: inhibition of tumour cell growth, NCI panel, 48 h).

SMILES	TGI [µM]
CNc1nncc2[nH]cnc12	> 100
COc1ccc(N2C(=O)C3c4[nH]c5cc(C)ccc5c4C4CCC(C(C)(C)C)CC4C3C2=O)cc1 (configuration not stated)	> 10
CC1(C)C=CC(=O)C(O)C(C)(C)C1=O (configuration not stated)	> 100
CNc1nc(N)nc(Nc2ccc(I)cc2)c1N=O	> 100
O=C1/C(=C/c2ccc(Cl)cc2)CCCc2ccccc21	30.7
Cc1cc(C[C@H]2O[C@@H]3OC(C)(C)O[C@@H]3[C@H]3OC(C)(C)O[C@H]32)c2ccccc2n1	> 100
Nc1ncnc2c1ccn2C/C=C/CO	> 100
CC(C)(C)c1ccc2c(c1)C#Cc1cc3c(cc1OCCCO2)C#Cc1cc(C(C)(C)C)ccc1OCCCO3	> 100

Each molecule was assayed on HOP-92 NSCLC (assay: inhibition of tumour cell growth, NCI panel, 48 h).

SMILES	TGI [µM]
CNc1nncc2[nH]cnc12	> 100
CC1(C)C=CC(=O)C(O)C(C)(C)C1=O (configuration not stated)	> 100
O=C1/C(=C/c2ccc(Cl)cc2)CCCc2ccccc21	57.3
Nc1ncnc2c1ccn2C/C=C/CO	> 100
CC(C)(C)c1ccc2c(c1)C#Cc1cc3c(cc1OCCCO2)C#Cc1cc(C(C)(C)C)ccc1OCCCO3	> 100

What follows are molecules tested on UACC-257 melanoma (assay: inhibition of tumour cell growth, NCI panel, 48 h).

SMILES	TGI [µM]
CNc1nncc2[nH]cnc12	> 100
